Usually MIC stands for the lowest concentration found to suppress growth. By IC50 is commonly meant the concentration that gives 50% inhibition. The low end stands for higher potency, the high end for lower potency.

What all share (type): cell-based
Series [1] deals with Acinetobacter baumannii ABA19-1. The note with it: ABA19-1. In short, it runs like this:
(§1)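 The MIC value comes from CLSI broth microdilution after 16-20 h at 35-37°C. Cyclic lipopeptides in Mueller-Hinton broth spanned 64 to 0.03 mg/L final, with each well carrying (2-4) × 10^5 CFU/mL.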

The test system of series [2] is Acinetobacter baumannii NCTC 13304 (OXA-27). Particulars: NCTC 13304. An outline of the steps: as §1
Series [3] concerns Escherichia coli ATCC BAA-2340 (KPC). Particulars: ATCC BAA-2340. In short, it runs like this:
as §1

In series [4] the test system is Escherichia coli ATCC BAA-2523. The note with it: ATCC BAA-2523. In short, it runs like this:
as §1

Series [5] concerns Klebsiella pneumoniae ATCC BAA-1705 (KPC). The note with it: ATCC BAA-1705. In short, it runs like this:
as §1

Series [6] concerns Klebsiella pneumoniae KPN+19-15. Particulars: KPN+19-15. In short, it runs like this: as §1
Series [7] has as its system Pseudomonas aeruginosa ATCC 27853. Particulars: ATCC 27853. In short, it runs like this:
as §1

Series [8] deals with Pseudomonas aeruginosa PAE19-3. The note with it: PAE19-3. In short, it runs like this:
as §1

Series [9] in a line: Nephrotoxicity assay: in vitro cytotoxicity of HK-2 cells by CCK-8 assay. Particulars: human, HK-2 cells (human renal), 72 h incubation with drug-containing medium. An outline of the steps: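 Compounds in sterile water, diluted to final 500, 250, 200, 100, 50, 25 and 12.5 µg/mL, were applied for 72 h to human HK-2 kidney cells. Absorbance at 450 nm after 3 h CCK-8 gave viability against untreated wells, and IC50 came from logarithmic regression; three replicates.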
A general note: Formazan colour is commonly taken as a measure of viable cells.

Values after ≈ are worked out from the molar mass of the structure shown. Bridge positions count the residues as written; N and C are the ends. Square brackets hold non-standard residues; d marks the D form. Peptide text beside a SMILES is read from it. * marks the point of attachment. Dab(CH2SO3H) = N[C@@H](CCNCS(=O)(=O)O)C(=O)O; Heptanoyl(6-Me) = CC(C)CCCCC(=O)*; dOrn = NCCC[C@@H](N)C(=O)O; Nonanoyl = CCCCCCCCC(=O)*; Heptanoyl = CCCCCCC(=O)*; Octanoyl = CCCCCCCC(=O)*; Orn = NCCC[C@H](N)C(=O)O; Dab = NCC[C@H](N)C(=O)O; Dap = NC[C@H](N)C(=O)O

With `CCCCCCC(=O)N[C@@H](CCN)C(=O)N[C@H](C(=O)N[C@H](CO)C(=O)N[C@H]1CCNC(=O)[C@H]([C@@H](C)O)NC(=O)[C@H](CCN)NC(=O)[C@H](CCCN)NC(=O)[C@H]([C@@H](C)O)NC(=O)[C@@H](Cc2ccccc2)NC(=O)[C@H](CCN)NC1=O)[C@@H](C)O` [Compound 79, Heptanoyl-Dab-Thr-D-Ser-ring(4-10)[Dab-Dab-D-Phe-Thr-Orn-Dab-Thr]] (Heptanoyl-[Dab]T[dS][Dab][Dab][dF]T[Orn][Dab]T; lactam 4-C), the minimal inhibitory concentration (MIC) came to 0.06 µg/mL (≈ 0.0515 µM) in [1]; 0.03 µg/mL (≈ 0.0258 µM) in series [2]; 0.03 µg/mL (≈ 0.0258 µM) in [3]; 0.03 µg/mL (≈ 0.0258 µM) in [4]; 0.25 µg/mL (≈ 0.215 µM) in [5]; 0.5 µg/mL (≈ 0.429 µM) in series [6]. The results for the MIC in series [7] and in series [8] were more than 64 µg/mL and 64 µg/mL (≈ 55 µM), respectively. This molecule displayed a 50% inhibitory concentration (IC50) at 72 h in series [9] of more than 500 µg/mL.

As for `CCCCCCCCC(=O)N[C@@H](CCN)C(=O)N[C@H](C(=O)N[C@H](CCCN)C(=O)N[C@H]1CCNC(=O)[C@H]([C@@H](C)O)NC(=O)[C@H](CCN)NC(=O)[C@H](CCN)NC(=O)[C@H]([C@@H](C)O)NC(=O)[C@@H](Cc2ccccc2)NC(=O)[C@H](CCN)NC1=O)[C@@H](C)O` [Compound 25, Nonanoyl-Dab-Thr-D-Orn-ring(4-10)[Dab-Dab-D-Phe-Thr-Dab-Dab-Thr]] (Nonanoyl-[Dab]T[dOrn][Dab][Dab][dF]T[Dab][Dab]T; lactam 4-C), the minimal inhibitory concentration (MIC) is 0.125 µg/mL (≈ 0.104 µM) in series [1]; 0.06 µg/mL (≈ 0.0498 µM) in series [2]; not above 0.03 µg/mL in series [3]; not above 0.03 µg/mL in [4]; 0.06 µg/mL (≈ 0.0498 µM) in series [5]; 0.125 µg/mL (≈ 0.104 µM) in [6]. Besides, the MIC in series [7] was determined as 0.5 µg/mL (≈ 0.415 µM); in series [8] it was 2 µg/mL (≈ 1.66 µM). The 50% inhibitory concentration (IC50) at 72 h in series [9] was determined as 338 ± 15.1 µg/mL (≈ 280 µM).

Turning to `CCCCCCCC(=O)N[C@@H](CCCN)C(=O)N[C@H](C(=O)N[C@H](CO)C(=O)N[C@H]1CCNC(=O)[C@H]([C@@H](C)O)NC(=O)[C@H](CCN)NC(=O)[C@H](CCN)NC(=O)[C@H]([C@@H](C)O)NC(=O)[C@@H](Cc2ccccc2)NC(=O)[C@H](CCN)NC1=O)[C@@H](C)O` [Compound 58, Octanoyl-Orn-Thr-D-Ser-ring(4-10)[Dab-Dab-D-Phe-Thr-Dab-Dab-Thr]] (Octanoyl-[Orn]T[dS][Dab][Dab][dF]T[Dab][Dab]T; lactam 4-C), the minimum inhibitory concentration (MIC) turned out to be 0.25 µg/mL (≈ 0.212 µM) in series [1]; 0.25 µg/mL (≈ 0.212 µM) in [2]; 0.125 µg/mL (≈ 0.106 µM) in [3]; 0.125 µg/mL (≈ 0.106 µM) in series [4]; 0.25 µg/mL (≈ 0.212 µM) in series [5]; 0.5 µg/mL (≈ 0.424 µM) in series [6]. Besides, the MIC worked out at 64 µg/mL (≈ 54.3 µM) in series [7] and 4 µg/mL (≈ 3.39 µM) in series [8]. This molecule also gave a half-inhibitory concentration (IC50) at 72 h in series [9] of more than 500 µg/mL.

In the case of `CC(C)CCCCC(=O)N[C@@H](CCN)C(=O)N[C@H](C(=O)N[C@@H](CCCN)C(=O)N[C@H]1CCNC(=O)[C@H]([C@@H](C)O)NC(=O)[C@H](CCN)NC(=O)[C@H](CCN)NC(=O)[C@H](CC(C)C)NC(=O)[C@@H](Cc2ccccc2)NC(=O)[C@H](CCN)NC1=O)[C@@H](C)O` [Compound 47, 6-methylheptanoyl-Dab-Thr-Orn-ring(4-10)[Dab-Dab-D-Phe-Leu-Dab-Dab-Thr]] ({Heptanoyl(6-Me)}-[Dab]T[Orn][Dab][Dab][dF]L[Dab][Dab]T; lactam 4-C), the MIC in series [1] is listed as 0.125 µg/mL (≈ 0.104 µM); in series [2] it was 0.06 µg/mL (≈ 0.0499 µM); in series [3], 0.03 µg/mL (≈ 0.0249 µM); in series [4] it was 0.03 µg/mL (≈ 0.0249 µM); in series [5] it was not above 0.03 µg/mL; in [6], not above 0.03 µg/mL. Besides, the MIC is on record as not above 0.03 µg/mL in series [7] and 0.25 µg/mL (≈ 0.208 µM) in series [8]. The concentration for half-maximal inhibition (IC50) at 72 h in series [9] worked out at 358 ± 11.2 µg/mL (≈ 297 µM).

On to `CCCCCCCCC(=O)N[C@@H](CCN)C(=O)N[C@H](C(=O)N[C@H](CO)C(=O)N[C@H]1CCNC(=O)[C@H]([C@@H](C)O)NC(=O)[C@H](CCN)NC(=O)[C@H](CCN)NC(=O)[C@H]([C@@H](C)O)NC(=O)[C@@H](Cc2ccccc2)NC(=O)[C@H](CN)NC1=O)[C@@H](C)O` [Compound 65, Nonanoyl-Dab-Thr-D-Ser-ring(4-10)[Dab-Dap-D-Phe-Thr-Dab-Dab-Thr]] (Nonanoyl-[Dab]T[dS][Dab][Dap][dF]T[Dab][Dab]T; lactam 4-C), for which the MIC in series [1] amounted to 0.25 µg/mL (≈ 0.215 µM); in [2] it was 0.25 µg/mL (≈ 0.215 µM); in [3], 0.25 µg/mL (≈ 0.215 µM); in [4], 0.25 µg/mL (≈ 0.215 µM); in series [5], 0.25 µg/mL (≈ 0.215 µM); in series [6], 0.5 µg/mL (≈ 0.429 µM). In addition, the values for the minimal inhibitory concentration (MIC) in [7] and in series [8] were 64 µg/mL (≈ 55 µM) and 8 µg/mL (≈ 6.87 µM), respectively. In addition, in [9], the IC50 at 72 h is 370 ± 31.8 µg/mL (≈ 318 µM).

Regarding `CC(C)CCCCC(=O)N[C@@H](CCN)C(=O)N[C@H](C(=O)N[C@H](CO)C(=O)N[C@H]1CCNC(=O)[C@H]([C@@H](C)O)NC(=O)[C@H](CCN)NC(=O)[C@H](CCNCS(=O)(=O)O)NC(=O)[C@H]([C@@H](C)O)NC(=O)[C@@H](Cc2ccccc2)NC(=O)[C@H](CCN)NC1=O)[C@@H](C)O` [Compound 110, 6-methylheptanoyl-Dab-Thr-D-Ser-ring(4-10)[Dab-Dab-D-Phe-Thr-Dab(CH2SO3H)-Dab-Thr]] ({Heptanoyl(6-Me)}-[Dab]T[dS][Dab][Dab][dF]T[Dab(CH2SO3H)][Dab]T; lactam 4-C), the minimal inhibitory concentration (MIC) in series [1] amounted to 0.25 µg/mL (≈ 0.199 µM); in [2], 0.06 µg/mL (≈ 0.0477 µM); in series [3], 0.06 µg/mL (≈ 0.0477 µM); in [4], 0.06 µg/mL (≈ 0.0477 µM); in [5] it was 0.125 µg/mL (≈ 0.0993 µM); in [6], 0.125 µg/mL (≈ 0.0993 µM). Moreover, the minimal inhibitory concentration (MIC) in series [7] was found to be 0.25 µg/mL (≈ 0.199 µM); in series [8], 0.5 µg/mL (≈ 0.397 µM). For the same molecule, the IC50 at 72 h in [9] was more than 500 µg/mL.

Regarding `CCCCCCCCC(=O)N[C@@H](CCN)C(=O)N[C@H](C(=O)N[C@H](CO)C(=O)N[C@H]1CCNC(=O)[C@H]([C@@H](C)O)NC(=O)[C@H](CCCN)NC(=O)[C@H](CCN)NC(=O)[C@H]([C@@H](C)O)NC(=O)[C@@H](Cc2ccccc2)NC(=O)[C@H](CCN)NC1=O)[C@@H](C)O` [Compound 90, Nonanoyl-Dab-Thr-D-Ser-ring(4-10)[Dab-Dab-D-Phe-Thr-Dab-Orn-Thr]] (Nonanoyl-[Dab]T[dS][Dab][Dab][dF]T[Dab][Orn]T; lactam 4-C), the minimal inhibitory concentration (MIC) came out at 0.06 µg/mL (≈ 0.0503 µM) in series [1]; 0.03 µg/mL (≈ 0.0252 µM) in series [2]; 0.25 µg/mL (≈ 0.21 µM) in [3]; 0.25 µg/mL (≈ 0.21 µM) in series [4]; 0.25 µg/mL (≈ 0.21 µM) in series [5]; 0.5 µg/mL (≈ 0.419 µM) in series [6]. Further, the MIC is more than 64 µg/mL in series [7] and 64 µg/mL (≈ 53.7 µM) in series [8]. The molecule further showed a concentration for half-maximal inhibition (IC50) at 72 h in series [9] of 320 ± 23.6 µg/mL (≈ 268 µM).

As for `CCCCCCC(=O)N[C@@H](CCN)C(=O)N[C@H](C(=O)N[C@H](CO)C(=O)N[C@H]1CCNC(=O)[C@H]([C@@H](C)O)NC(=O)[C@H](CCN)NC(=O)[C@H](CN)NC(=O)[C@H]([C@@H](C)O)NC(=O)[C@@H](Cc2ccccc2)NC(=O)[C@H](CCN)NC1=O)[C@@H](C)O` [Compound 74, Heptanoyl-Dab-Thr-D-Ser-ring(4-10)[Dab-Dab-D-Phe-Thr-Dap-Dab-Thr]] (Heptanoyl-[Dab]T[dS][Dab][Dab][dF]T[Dap][Dab]T; lactam 4-C), the minimal inhibitory concentration (MIC) in series [1] is 0.06 µg/mL (≈ 0.0528 µM); in series [2], 0.03 µg/mL (≈ 0.0264 µM); in series [3], 0.06 µg/mL (≈ 0.0528 µM); in series [4], 0.06 µg/mL (≈ 0.0528 µM); in series [5], 0.25 µg/mL (≈ 0.22 µM); in [6] it was 0.5 µg/mL (≈ 0.44 µM). The minimum inhibitory concentration (MIC) in series [7] is listed as more than 64 µg/mL; in series [8], 64 µg/mL (≈ 56.3 µM). The same molecule gave an IC50 at 72 h in series [9] of more than 500 µg/mL.

For the origin of these results see patent publication EP4725957A1, “GROUP OF CYCLIC ALKALINE LIPOPEPTIDE COMPOUNDS, AND PREPARATION METHOD THEREFOR AND USE THEREOF” (Institute of Medicinal Biotechnology, Chinese Academy of …, priority 2023, dated 2024).
